Measurements from patent US11813257B2, “Methods of treating erythropoietic protoporphyria, X-linked protoporphyria, or congenital erythropoietic porphyria with glycine transport inhibitors” (Disc Medicine, Inc., priority 2020, dated 2023).

Experiments:
Type in all cases: cell-based
K562 clone-9 cells [1] = assay: EPP cellular model: PPIX level by flow cytometry after 96 h compound incubation; conditions: for EC50: Homo sapiens, K562 clone-9 cells, 96 hours, flow cytometry, read-out: EPP cellular model (EC50 nM), inhibition of PPIX accumulation
Method: Knockout guide sequences were designed to target Exon3 of the Ferrochelatase gene.
K562 cells were cultured in Iscove's Modified Dulbecco's Medium (IMDM) supplemented with 10% fetal bovine serum (FBS), 1% penicillin/streptomycin (PS). CRISPR Cas9 RNP complex with guide RNA was electroporated in K562 cells. Genomic DNA from the pooled cells was isolated, amplified by PCR and sequenced by Sanger sequencing to determine knockout efficiency. Single-cell clones were isolated by fluorescent-assisted cell sorting (FACS). TA cloning and Sanger sequencing were used to confirm single-cell clones and genotypes. Five clones were selected (Clone IDs are: Clone 1-7; Clone 1-9; Clone 1-10, Clone 1-32; Clone 1-51; and K562 WT) for further characterization by western blot (FIG. 1) to determine FECH protein expression levels (Antibody: FECH Antibody Rabbit Polyclonal, Proteintech, 14466-1-AP) and flow cytometry to determine the PPIX levels (FIG. 2). LC/MS/MS confirmed the accumulation of PPIX in clone 1-9 compared to WT K562 cells (FIG. 3).
(§1) 900 μL of K562 clone-9 cells at 2×10^5 cells/mL in IMDM media with 10% FBS and 1% PS were plated into a 24-well plate. After 24-hour incubation, 100 μL of compound in DMSO/media was added in different concentration. The final concentration of DMSO was 0.1%. The compound was incubated for 96 hours at 37° C. Cell viability and cell count were measured by Vi-CELL XR Complete System. Finally, the effect of the compound on PPIX level was determined by flow cytometry.

K562 clone-9 cells [2] = assay: Cell viability and cell count by Vi-CELL XR Complete System in EPP cellular model; conditions: 96 hours, Vi-CELL XR
Method: as §1

[3] = tested on: clone 1-9 cells (EPP K562 cellular model); assay: LC/MS/MS of 5-ALA, PPIX and heme levels in the EPP K562 cellular model
[4] = tested on: human cord blood-CD34+ cells; assay: Human cord blood CD34+ cells transduced with FECH shRNA lentivirus, erythroid differentiation, flow cytometry; conditions: 100 nM, 9 days differentiation
Method: To investigate the effects of GlyT1 inhibitors in human hematopoietic stem cells with an EPP phenotype, lentiviral vectors expressing shRNA of FECH were constructed (Table 4) and transduced at 25 MOI into human cord blood-CD34+ cells purchased from Stemexpress.
Transduced CD34+ cells were differentiated in the presence of Bitopertin (100 nM) or DMSO control into erythroid cells for 9 days in StemSpan SFEM II media supplemented with StemSpan Erythroid Expansion Supplement. The erythroid cell antigen profile was analyzed using cytofluorimetric strategy with the following surface markers: CD71 (PE Mouse Anti-Human CD71, BD Biosciences), glycophoryin A (APC Mouse Anti-Human CD235a, BD Biosciences).

| Compound | EC50 (K562 clone-9 cells [1]) [nM] | other results |
| --- | --- | --- |
| CN(CC[C@@H](Oc1ccc(-c2ccccc2)cc1)c1ccc(F)cc1)CC(=O)O [ALX-5407] | 0.34 | – |
| C[C@H](Oc1ccc(S(C)(=O)=O)cc1C(=O)N1CCN(c2ncc(C(F)(F)F)cc2F)CC1)C(F)(F)F [Bitopertin, bitopertin] | 7 | effect on cell viability (K562 clone-9 cells [2]): no negative effects on cell viability; 5-aminolevulinic acid (5-ALA) level [3]: decreased; Heme formation [3]: minimal effect; PPIX level [3]: decreased; effect on erythroid cell surface markers (CD71, glycophoryin A) [4]: no negative effects; reduction of PPIX accumulation ([4]; FECH shRNA transduced CD34+ cells, flow cytometry): 60% |
| CN(CCOc1ccc(-c2ccc3c(c2)OCO3)cc1C(C)(C)C)CC(=O)O [LY-2365109] | 4.1 | – |
| CN(CC[C@@H](Oc1ccc(C(F)(F)F)cc1)c1ccccc1)CC(=O)O [ORG-24598] | 5.6 | – |
| COc1cc(C(=O)NCC2(N(C)C)CCCC2)cc(OC)c1OCc1ccccc1 [ORG-25543] | > 10000 | inhibition of PPIX accumulation (in words) (K562 clone-9 cells [1]; EPP cellular model, highest tested concentration 10 μM for ORG-25543): did not show any inhibition |
| COc1ccc2c(c1)CC[C@H](CN(C)CC(=O)O)[C@@H]2c1ccccc1 [ORG-25935] | 14 | – |
| CN1C[C@@H]2[C@H](C1)[C@H]2CN(Cc1ccc(F)c(Cl)c1)C(=O)c1cn(C)cn1 [PF-03463275] | 46 | – |
| O=C(N[C@@H](c1ccccc1)[C@@H]1CCCCN1)c1cccc(C(F)(F)F)c1Cl [SSR-504734] | 306 | – |
